Results from ChEMBL document CHEMBL3091427, “The discovery of the benzazepine class of histamine H3 receptor antagonists” (Bioorg Med Chem Lett, 2013).

Experiments:
[1] = molecular target: Cytochrome P450 2D6 (Homo sapiens, UniProt P10635); assay: Inhibition of human CYP2D6; type: ADME
[2] = molecular target: Histamine H3 receptor (Homo sapiens, UniProt Q9Y5N1); assay: Antagonist activity at human histamine H3 receptor expressed in CHOK1 cells assessed as inhibition of GTPgammaS binding by scintillation proximity assay; type: functional, cell-based, CHO-K1
Sequence of Histamine H3 receptor (Homo sapiens, UniProt Q9Y5N1) (Q9Y5N1 whole entry): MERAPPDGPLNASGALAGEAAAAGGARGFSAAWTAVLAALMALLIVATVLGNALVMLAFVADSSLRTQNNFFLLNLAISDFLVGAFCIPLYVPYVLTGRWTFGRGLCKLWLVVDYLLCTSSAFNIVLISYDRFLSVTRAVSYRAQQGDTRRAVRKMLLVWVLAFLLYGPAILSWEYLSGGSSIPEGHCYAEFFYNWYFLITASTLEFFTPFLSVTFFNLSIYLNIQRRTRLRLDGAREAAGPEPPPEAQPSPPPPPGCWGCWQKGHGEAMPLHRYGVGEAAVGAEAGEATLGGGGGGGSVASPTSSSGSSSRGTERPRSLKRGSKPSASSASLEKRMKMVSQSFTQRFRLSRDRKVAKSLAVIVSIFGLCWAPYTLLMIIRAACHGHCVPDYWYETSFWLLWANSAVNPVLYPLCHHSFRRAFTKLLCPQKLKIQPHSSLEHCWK

[3] = tested on: Liver microsome; assay: Intrinsic clearance in human liver microsomes; type: ADME
[4] = tested on: Liver microsome; assay: Intrinsic clearance in rat liver microsomes; type: ADME
[5] = tested on: Rattus norvegicus; assay: Reversal of RAMH-induced dipsogenia in Lister Hooded rat at 3 mg/kg, po; type: functional
[6] = molecular target: Histamine H1 receptor (Homo sapiens, UniProt P35367); assay: Antagonist activity at human recombinant histamine H1 receptor expressed in CHO cells assessed as inhibition of histamine-induced effect by FLIPR assay; type: cell-based
Sequence of Histamine H1 receptor (P35367 whole entry): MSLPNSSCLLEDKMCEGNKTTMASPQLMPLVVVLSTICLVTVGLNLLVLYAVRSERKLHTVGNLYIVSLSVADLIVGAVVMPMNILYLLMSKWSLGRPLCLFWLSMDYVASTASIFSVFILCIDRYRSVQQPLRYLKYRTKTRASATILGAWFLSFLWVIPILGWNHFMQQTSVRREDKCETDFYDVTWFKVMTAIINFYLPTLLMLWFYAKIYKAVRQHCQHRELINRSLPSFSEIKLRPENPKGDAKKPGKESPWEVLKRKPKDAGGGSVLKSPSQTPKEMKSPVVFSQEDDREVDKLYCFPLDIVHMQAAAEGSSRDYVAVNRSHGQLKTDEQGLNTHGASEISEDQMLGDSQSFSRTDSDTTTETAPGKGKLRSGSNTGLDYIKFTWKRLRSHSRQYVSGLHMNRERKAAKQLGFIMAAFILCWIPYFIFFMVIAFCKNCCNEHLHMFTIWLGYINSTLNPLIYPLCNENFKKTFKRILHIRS

[7] = molecular target: Albumin (Homo sapiens, UniProt P02768); assay: Binding affinity to human serum albumin; type: ADME; settings: isolated protein
Sequence of Albumin (P02768 whole entry): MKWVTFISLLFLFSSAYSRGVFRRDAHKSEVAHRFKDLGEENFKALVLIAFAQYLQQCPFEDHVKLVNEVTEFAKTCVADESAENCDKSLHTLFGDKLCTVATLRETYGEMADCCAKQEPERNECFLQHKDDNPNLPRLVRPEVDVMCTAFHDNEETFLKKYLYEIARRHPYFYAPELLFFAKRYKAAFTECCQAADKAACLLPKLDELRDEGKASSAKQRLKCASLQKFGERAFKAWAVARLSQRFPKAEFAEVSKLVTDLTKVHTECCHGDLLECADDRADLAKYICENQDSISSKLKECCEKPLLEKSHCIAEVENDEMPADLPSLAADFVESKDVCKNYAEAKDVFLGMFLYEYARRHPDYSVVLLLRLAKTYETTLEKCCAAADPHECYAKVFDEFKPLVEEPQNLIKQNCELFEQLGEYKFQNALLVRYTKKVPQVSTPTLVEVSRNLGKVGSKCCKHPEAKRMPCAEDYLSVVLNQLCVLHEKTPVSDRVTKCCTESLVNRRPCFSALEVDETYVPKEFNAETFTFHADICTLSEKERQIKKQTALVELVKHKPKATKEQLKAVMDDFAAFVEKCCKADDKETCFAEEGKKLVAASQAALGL

[8] = molecular target: hERG (KCNH2) (Homo sapiens, UniProt Q12809); assay: Inhibition of human ERG at 10 uM by patch clamp assay
Sequence of hERG (KCNH2) (Q12809 whole entry): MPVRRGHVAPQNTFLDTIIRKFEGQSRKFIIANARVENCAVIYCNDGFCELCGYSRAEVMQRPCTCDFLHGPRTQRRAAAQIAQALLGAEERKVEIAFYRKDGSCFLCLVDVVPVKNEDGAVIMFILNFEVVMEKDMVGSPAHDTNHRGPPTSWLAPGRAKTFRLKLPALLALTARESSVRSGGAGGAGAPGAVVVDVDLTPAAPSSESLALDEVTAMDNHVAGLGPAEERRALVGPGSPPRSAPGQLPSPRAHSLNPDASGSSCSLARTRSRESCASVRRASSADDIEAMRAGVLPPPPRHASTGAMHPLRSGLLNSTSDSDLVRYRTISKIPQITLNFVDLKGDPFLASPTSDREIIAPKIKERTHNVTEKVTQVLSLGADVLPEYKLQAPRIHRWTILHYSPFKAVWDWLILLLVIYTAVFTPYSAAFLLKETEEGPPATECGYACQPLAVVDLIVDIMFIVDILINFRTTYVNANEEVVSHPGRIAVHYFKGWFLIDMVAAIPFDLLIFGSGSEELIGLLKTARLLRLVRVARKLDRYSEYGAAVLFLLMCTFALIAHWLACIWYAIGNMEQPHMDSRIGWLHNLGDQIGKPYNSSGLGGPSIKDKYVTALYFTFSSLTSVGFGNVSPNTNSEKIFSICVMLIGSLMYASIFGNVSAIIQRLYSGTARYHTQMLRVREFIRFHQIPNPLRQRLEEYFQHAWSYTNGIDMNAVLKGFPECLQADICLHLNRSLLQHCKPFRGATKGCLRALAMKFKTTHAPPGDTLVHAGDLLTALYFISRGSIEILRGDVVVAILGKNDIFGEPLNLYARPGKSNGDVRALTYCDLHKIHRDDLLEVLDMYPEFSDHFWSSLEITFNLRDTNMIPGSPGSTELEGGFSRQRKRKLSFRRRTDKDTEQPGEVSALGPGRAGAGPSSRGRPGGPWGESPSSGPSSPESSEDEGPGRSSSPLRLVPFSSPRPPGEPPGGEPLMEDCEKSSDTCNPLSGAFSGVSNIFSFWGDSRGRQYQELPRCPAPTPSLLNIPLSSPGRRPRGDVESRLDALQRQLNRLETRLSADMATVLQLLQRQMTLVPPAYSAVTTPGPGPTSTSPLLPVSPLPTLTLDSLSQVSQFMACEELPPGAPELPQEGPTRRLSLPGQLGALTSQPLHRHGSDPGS

[9] = Terminal half life in iv dosed rat after 0.5 hrs; type: ADME, organism-based; settings: in vivo, read-out: beta t1/2 (converted)
[10] = Drug level in Lister Hooded rat blood at 3 mg/kg, po after 2 hrs; type: ADME, organism-based; parameters: dose 3 mg/kg, route oral; settings: whole blood, read-out: Ct
[11] = molecular target: Histamine H3 receptor (Rattus norvegicus, UniProt Q9QYN8); assay: Displacement of [3H]R-alpha-methylhistamine from histamine H3 receptor in rat cerebral cortical membranes after 45 mins by liquid scintillation spectrometry; type: cell membranes
Sequence of Histamine H3 receptor (Rattus norvegicus, UniProt Q9QYN8) (Q9QYN8 whole entry): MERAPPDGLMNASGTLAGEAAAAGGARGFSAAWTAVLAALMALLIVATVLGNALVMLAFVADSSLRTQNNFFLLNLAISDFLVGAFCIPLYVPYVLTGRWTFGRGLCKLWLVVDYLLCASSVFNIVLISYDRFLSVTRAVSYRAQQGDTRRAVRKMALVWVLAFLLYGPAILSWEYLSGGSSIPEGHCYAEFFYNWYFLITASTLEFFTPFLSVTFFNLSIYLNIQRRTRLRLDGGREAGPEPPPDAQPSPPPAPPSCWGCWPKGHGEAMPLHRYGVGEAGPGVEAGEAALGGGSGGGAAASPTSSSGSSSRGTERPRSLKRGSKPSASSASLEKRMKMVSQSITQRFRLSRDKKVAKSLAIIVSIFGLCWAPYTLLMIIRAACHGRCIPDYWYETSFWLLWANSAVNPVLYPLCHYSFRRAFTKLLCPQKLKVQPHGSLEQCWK

[12] = Lipophilicity, log D of the compound; type: physicochemical; settings: octanol/water
[13] = Dissociation constant, pKa of the compound; type: physicochemical
[14] = Drug level in Lister Hooded rat brain at 3 mg/kg, po after 2 hrs; type: ADME, organism-based; parameters: dose 3 mg/kg, route oral; settings: read-out: Ct
[15] = Ratio of drug level in brain to blood in Lister Hooded rat at 3 mg/kg, po after 2 hrs; type: ADME, organism-based; parameters: dose 3 mg/kg, route oral
[16] = tested on: Rattus norvegicus; assay: Ex vivo binding affinity to histamine H3 receptor in po dosed Lister Hooded rat; type: functional
[17] = Volume of distribution at steady state in iv dosed rat after 1 hr; type: ADME, organism-based; settings: in vivo, read-out: Vdss
[18] = Total blood clearance in iv dosed rat after 1 hr; type: ADME, organism-based; settings: whole blood
[19] = tested on: Rattus norvegicus; assay: Reversal of RAMH-induced dipsogenia in Lister Hooded rat at 10 mg/kg, ip; type: functional; settings: route intraperitoneal

Sequence of Cytochrome P450 2D6 (P10635 whole entry): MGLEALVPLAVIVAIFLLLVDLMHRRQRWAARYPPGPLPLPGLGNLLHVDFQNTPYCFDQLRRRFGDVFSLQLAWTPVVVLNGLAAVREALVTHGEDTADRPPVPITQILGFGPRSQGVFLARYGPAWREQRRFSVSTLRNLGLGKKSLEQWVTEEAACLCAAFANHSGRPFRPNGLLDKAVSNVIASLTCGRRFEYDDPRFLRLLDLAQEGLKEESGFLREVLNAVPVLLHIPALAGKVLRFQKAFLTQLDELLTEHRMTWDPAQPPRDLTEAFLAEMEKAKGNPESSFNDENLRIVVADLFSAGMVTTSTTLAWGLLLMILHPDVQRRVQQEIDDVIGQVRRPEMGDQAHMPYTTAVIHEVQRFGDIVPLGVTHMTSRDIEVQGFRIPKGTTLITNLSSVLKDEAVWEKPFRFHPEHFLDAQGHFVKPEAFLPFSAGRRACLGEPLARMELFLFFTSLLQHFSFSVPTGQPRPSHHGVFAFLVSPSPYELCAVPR

Compound	Ki [2] [nM]	CLH [3] [mL/min/g]	CLH [4] [mL/min/g]	further results
O=C(c1ccc(OCCCc2cnc[nH]2)cc1)C1CC1 [CIPROXIFAN]	–	–	–	Ki [6]: > 2510 nM; Activity [7]: 80%; Activity [5]: 100%
FC1(F)CCN(CCCOc2ccc3c(c2)CCNCC3)CC1	> 398	–	–	–
c1cc2c(cc1OCCCN1CCOCC1)CCNCC2	100	–	–	–
c1cc2c(cc1OCCCN1CCCCC1)CCN2	15.8	–	–	–
CC(C)N1CCc2ccc(OCc3ccccc3)cc2CC1	20	–	–	–
c1ccc(COc2ccc3c(c2)CCN(C2CCC2)CC3)cc1	0.251	12	> 50	IC50 [1]: 600 nM
c1ccc(COc2ccc3c(c2)CCN(CC2CC2)CC3)cc1	10	11	> 50	IC50 [1]: 1500 nM; Ki [6]: 1000 nM
c1cc2c(cc1OCCCN1CCCCC1)CCNCC2	3.98	–	–	Ki [6]: 1260 nM
c1cc2c(cc1OCCCN1CCCCC1)CCNC2	2.51	–	–	–
CN1CCc2ccc(OCc3ccccc3)cc2CC1	316	–	–	–
CC(C)CN1CCc2ccc(OCc3ccccc3)cc2CC1	25.1	–	–	–
c1cc2c(cc1OCCCN1CCCCC1)CCN(CC1CCCO1)CC2 (centres undefined)	0.501	–	–	Ki [6]: 2000 nM
CN(C)CCCOc1ccc2c(c1)CCNCC2	100	–	–	–
c1ccc(COc2ccc3c(c2)CCNCC3)cc1	> 10000	–	–	–
c1cc2c(cc1OCCCN1CCCCC1)CCN(CC1CC1)CC2	0.501	–	–	Ki [6]: 2000 nM
OC1CCN(CCCOc2ccc3c(c2)CCNCC3)CC1	> 10000	–	–	–
c1cc2c(cc1OCCN1CCCCC1)CCNCC2	158	–	–	–
c1ccc(COc2ccc3c(c2)CCN(C2CCCC2)CC3)cc1	0.794	19	> 50	IC50 [1]: 600 nM
c1ccc(COc2ccc3c(c2)CCN(C2CC2)CC3)cc1	5.01	–	–	–
c1cc2c(cc1OCCN1CCCCC1)CCN(CC1CC1)CC2	0.794	–	–	Ki [6]: > 2000 nM
O=C(N[C@H]1CCN(Cc2ccc(OCCCN3CCCCC3)cc2)C1)c1ccc2c(c1)OCO2	0.0251	–	–	Activity [19]: 78%; Ki [6]: > 2510 nM; Activity [7]: 96%
CC(C)N1CCC(Oc2ccc3c(c2)CCNCC3)CC1	2.51	–	–	Ki [6]: > 2510 nM

Further lines, with some results ahead:

Ki [2] [nM]	CLH [3] [mL/min/g]	CLH [4] [mL/min/g]	Compound	further results
0.501	0.9	0.7	c1cc2c(cc1OCC1CCNCC1)CCN(C1CCC1)CC2	IC50 [1]: 19000 nM; Activity [5]: 44%
1	0.9	1.1	O=C(N1CCOCC1)N1CCC(Oc2ccc3c(c2)CCN(C2CCC2)CC3)CC1	inhibition at 10 µM [8]: < 30%; half-life [9]: 1.2 h; concentration at 2 h [10]: 470 nM; Ki [11]: 12.6 nM; logD [12]: 2.2; pKa [13]: 9.2; concentration at 2 h [14]: 530 nM; Kp at 2 h [15]: 1.1; ED50 [16]: 2.2 mg/kg; Activity [7]: 49%; Vd [17]: 4.6 L/kg; clearance [18]: 63 mL/min/kg; Activity [5]: 100%
15.8	–	–	CC(=O)N1CCc2ccc(OCCCN3CCCCC3)cc2CC1	–
0.501	0.8	2.9	O=C(c1ccc(Cl)cc1)N1CCC(Oc2ccc3c(c2)CCN(C2CCC2)CC3)CC1	Activity [5]: 89%
10	–	–	c1ccc(N2CCc3ccc(OCCCN4CCCCC4)cc3CC2)cc1	Ki [6]: 1000 nM
10	–	–	c1ccc(COc2ccc3c(c2)CCN(C2CCCCC2)CC3)cc1	–
> 1000	–	–	c1ccc(COc2ccc3c(c2)CCN(Cc2ccccc2)CC3)cc1	–
0.398	3.4	2.5	Cn1c(=O)ccc2cc(COc3ccc4c(c3)CCN(C3CCC3)CC4)ccc21	IC50 [1]: 4200 nM
0.316	0.5	1.2	c1cc2c(cc1OC1CCNCC1)CCN(C1CCC1)CC2	–
0.794	0.5	2.9	CS(=O)(=O)N1CCC(Oc2ccc3c(c2)CCN(C2CCC2)CC3)CC1	IC50 [1]: 13000 nM; Activity [5]: 6%
1.58	1.2	3.5	Cc1cc(C(=O)N2CCC(Oc3ccc4c(c3)CCN(C3CCC3)CC4)CC2)no1	IC50 [1]: 43000 nM; Activity [5]: 11%
